{"source": "paper PMC7673765", "about": "(Science Advances, 2020)", "key": {"LMTK3": {"tested_on": "LMTK3", "experiment": "Western blots of LMTK3 in BC cell lines", "format": "cell-based, human", "settings": "for endogenous LMTK3 protein levels (Western blot): increasing concentrations of HSP90 inhibitor, 72 hours"}, "ERα": {"tested_on": "ERα", "experiment": "Western blots of ERα in BC cell lines", "format": "cell-based, human"}, "HSP90": {"tested_on": "HSP90", "experiment": "Western blots of chaperones in BC cell lines", "format": "cell-based, human", "settings": "increasing concentrations of C28, 48 hours"}, "CDC37": {"tested_on": "CDC37", "experiment": "Western blots of chaperones in BC cell lines", "format": "cell-based, human", "settings": "increasing concentrations of C28, 48 hours"}, "human HSP90α": {"biological_target": "human HSP90α (Homo sapiens, UniProt P07900)", "experiment": "Isothermal titration calorimetry", "format": "binding", "settings": "0.2 mM C28 injected into 20 μM human HSP90α"}, "BC cells": {"tested_on": "BC cells", "experiment": "Cell viability assay", "format": "cell-based", "settings": "Homo sapiens, 72 h, read-out: IC50 values, growth of BC cells"}, "[1]": {"tested_on": "NCI-60 panel of tumor cell lines", "experiment": "NCI-60 one-dose screening", "format": "cell-based", "settings": "Homo sapiens, 24 h, read-out: inhibition of all cancer cell lines"}, "NCI-60 cell lines": {"tested_on": "NCI-60 cell lines", "experiment": "NCI-60 five-dose evaluation", "format": "cell-based, human", "settings": "five doses"}, "[2]": {"tested_on": "BC cell lines (MCF7, T47D, MDA-MB-231)", "experiment": "Cell death and apoptosis", "format": "cell-based, human", "settings": "increasing concentrations of C28, 72 hours"}, "MCF12A": {"tested_on": "MCF12A", "experiment": "Cell death and apoptosis", "format": "cell-based, human", "settings": "even at high concentrations of C28 and longer time points"}, "Pharmacokinetics in mice": {"experiment": "Pharmacokinetics in mice", "format": "in vivo", "settings": "male, BALB/c (nude), mouse, plasma"}, "MMTV-Neu mammary tumors": {"tested_on": "MMTV-Neu mammary tumors", "experiment": "MMTV-Neu transgenic mammary tumor model", "format": "in vivo, mice"}, "[3]": {"experiment": "Histopathologic analysis of tumor sections and organs, MMTV-Neu mice", "format": "in vivo", "settings": "C28 10 mg/kg oral daily"}, "MDA-MB-231 xenografts": {"tested_on": "MDA-MB-231 xenografts", "experiment": "MDA-MB-231 xenograft mouse model", "format": "in vivo, NSG mice", "settings": "C28 10 mg/kg oral daily; after 23 days"}, "IRAK4": {"biological_target": "T1, IRAK4 (Homo sapiens, UniProt Q9NWZ3)", "T1 sequence (Q9NWZ3 1-460)": "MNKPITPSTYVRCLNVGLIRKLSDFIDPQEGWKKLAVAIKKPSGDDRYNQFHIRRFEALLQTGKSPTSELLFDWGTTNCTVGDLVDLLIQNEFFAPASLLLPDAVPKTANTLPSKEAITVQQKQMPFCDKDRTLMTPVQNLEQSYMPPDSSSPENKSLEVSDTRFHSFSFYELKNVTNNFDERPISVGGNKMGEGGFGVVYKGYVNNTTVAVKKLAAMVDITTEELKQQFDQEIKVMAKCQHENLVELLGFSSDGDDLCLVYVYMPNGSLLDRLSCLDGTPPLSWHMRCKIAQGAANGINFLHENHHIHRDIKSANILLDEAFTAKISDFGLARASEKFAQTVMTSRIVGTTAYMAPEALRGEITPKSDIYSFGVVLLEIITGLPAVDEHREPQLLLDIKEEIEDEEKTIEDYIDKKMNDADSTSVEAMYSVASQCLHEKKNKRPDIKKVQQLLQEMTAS", "experiment": "Western blots of kinases in BC cell lines", "settings": "10 μM C28, different time points"}, "HIPK2": {"biological_target": "HIPK2 (Homo sapiens, UniProt Q9H2X6)", "sequence (Q9H2X6 whole entry)": "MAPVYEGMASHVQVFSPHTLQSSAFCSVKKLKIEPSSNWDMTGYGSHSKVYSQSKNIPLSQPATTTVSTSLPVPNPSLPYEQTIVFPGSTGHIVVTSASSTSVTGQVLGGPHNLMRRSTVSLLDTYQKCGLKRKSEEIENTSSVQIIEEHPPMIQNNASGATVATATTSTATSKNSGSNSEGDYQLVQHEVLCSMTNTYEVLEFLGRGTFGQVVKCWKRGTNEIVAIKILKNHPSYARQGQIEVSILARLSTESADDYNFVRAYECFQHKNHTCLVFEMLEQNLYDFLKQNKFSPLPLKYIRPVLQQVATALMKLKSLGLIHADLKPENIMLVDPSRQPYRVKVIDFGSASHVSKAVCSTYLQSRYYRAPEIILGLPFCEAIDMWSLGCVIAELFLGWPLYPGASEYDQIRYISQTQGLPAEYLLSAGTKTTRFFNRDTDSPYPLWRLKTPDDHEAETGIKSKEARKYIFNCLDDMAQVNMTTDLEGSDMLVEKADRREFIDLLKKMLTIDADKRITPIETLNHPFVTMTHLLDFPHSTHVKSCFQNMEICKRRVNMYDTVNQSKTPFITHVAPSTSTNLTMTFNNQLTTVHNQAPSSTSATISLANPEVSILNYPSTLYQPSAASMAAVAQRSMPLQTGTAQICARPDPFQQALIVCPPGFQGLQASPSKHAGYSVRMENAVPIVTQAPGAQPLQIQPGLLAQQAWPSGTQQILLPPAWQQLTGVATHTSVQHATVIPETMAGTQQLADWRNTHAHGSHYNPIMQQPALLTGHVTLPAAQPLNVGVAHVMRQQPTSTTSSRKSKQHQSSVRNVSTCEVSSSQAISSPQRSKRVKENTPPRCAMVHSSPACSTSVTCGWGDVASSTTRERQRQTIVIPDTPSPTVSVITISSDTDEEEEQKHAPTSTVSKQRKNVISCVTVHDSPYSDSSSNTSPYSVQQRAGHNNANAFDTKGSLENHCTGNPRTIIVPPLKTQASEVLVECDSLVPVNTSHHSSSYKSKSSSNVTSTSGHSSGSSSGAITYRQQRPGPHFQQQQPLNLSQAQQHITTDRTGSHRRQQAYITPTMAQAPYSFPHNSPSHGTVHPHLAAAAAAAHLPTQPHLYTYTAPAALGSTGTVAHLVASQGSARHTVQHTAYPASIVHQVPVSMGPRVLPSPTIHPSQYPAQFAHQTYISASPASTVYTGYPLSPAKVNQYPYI", "experiment": "Western blots of kinases in BC cell lines", "settings": "10 μM C28, different time points"}, "HSP70": {"tested_on": "HSP70", "experiment": "Western blots of HSP70 in BC cell lines", "format": "cell-based, human", "settings": "increasing concentrations of HSP90 inhibitor, 72 hours"}, "[4]": {"biological_target": "T2, human CDC37 (cell division cycle 37), recombinant (human, UniProt Q16543 1-378)", "T2 sequence (looked up)": "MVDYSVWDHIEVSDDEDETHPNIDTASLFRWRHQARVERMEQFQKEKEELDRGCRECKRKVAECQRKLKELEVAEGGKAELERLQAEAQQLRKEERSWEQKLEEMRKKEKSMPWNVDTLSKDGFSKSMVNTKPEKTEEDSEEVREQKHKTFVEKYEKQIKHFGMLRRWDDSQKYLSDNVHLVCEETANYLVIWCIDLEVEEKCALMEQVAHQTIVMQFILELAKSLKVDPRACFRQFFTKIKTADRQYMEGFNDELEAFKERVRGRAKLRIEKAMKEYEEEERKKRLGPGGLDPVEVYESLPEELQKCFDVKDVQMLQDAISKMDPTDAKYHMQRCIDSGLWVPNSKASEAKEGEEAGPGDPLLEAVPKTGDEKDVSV", "experiment": "MST"}}, "note": "“Also recorded” adds a separate entry of the source.", "data": [{"molecule": "FC(F)(F)Oc1cccc(-c2cnc3ccc(-c4ccncc4)nn23)c1", "note": "[C28, 6-(pyridin-4-yl)-3-(3-(trifluoromethoxy)phenyl)imidazo[1,2-b]pyridazine]", "values": [{"measurement": "LMTK3 protein levels (Western blot)", "setting": "LMTK3; increasing concentrations of C28, different time points", "result": "time- and dose-dependent degradation of LMTK3"}, {"measurement": "protein levels of ERα (Western blot)", "setting": "ERα; BC cell lines treated with C28", "result": "decreased protein levels of ERα"}, {"measurement": "protein levels of HSP90 (Western blot)", "setting": "HSP90", "result": "no effect"}, {"measurement": "protein levels of CDC37 (Western blot)", "setting": "CDC37", "result": "no effect"}, {"measurement": "binding to HSP90α (ITC)", "setting": "human HSP90α", "result": "no detectible heat of interaction; also recorded: does not bind to HSP90"}, {"measurement": "IC50", "setting": "BC cells", "result": "6.5 to 8.64", "unit": "µM"}, {"measurement": "inhibition at 10 µM", "setting": "[1]", "result": "> 50", "unit": "%"}, {"measurement": "sensitivity of renal cancer cells", "setting": "NCI-60 cell lines", "result": "more sensitive"}, {"measurement": "apoptosis of BC cell lines", "setting": "[2]", "result": "triggered apoptosis"}, {"measurement": "cell death of nontransformed MCF12A", "setting": "MCF12A", "result": "low percentage of cell death"}, {"measurement": "half-life", "setting": "Pharmacokinetics in mice; ip, 10 mg/kg, T1/2, plasma", "result": "~59", "unit": "min"}, {"measurement": "Cmax", "setting": "Pharmacokinetics in mice; iv, 5 mg/kg", "result": 4.3, "unit": "µM"}, {"measurement": "half-life", "setting": "Pharmacokinetics in mice; iv, 5 mg/kg, half-life (T1/2)", "result": "~10", "unit": "min"}, {"measurement": "Cmax", "setting": "Pharmacokinetics in mice; po, 10 mg/kg", "result": 632, "unit": "ng/mL"}, {"measurement": "half-life", "setting": "Pharmacokinetics in mice; po, 10 mg/kg, T1/2, plasma", "result": "~62", "unit": "min"}, {"measurement": "Ki-67 IHC analysis of tumor sections", "setting": "MMTV-Neu mammary tumors; C28 10 mg/kg", "result": "decreased proliferation"}, {"measurement": "LMTK3 expression in tumors (IHC staining)", "setting": "MMTV-Neu mammary tumors; C28 10 mg/kg", "result": "reduction of LMTK3 expression"}, {"measurement": "tumor growth compared to the vehicle-treated group", "setting": "MMTV-Neu mammary tumors; C28 10 mg/kg oral daily", "result": "nearly completely abrogated tumor growth"}, {"measurement": "toxicity (histopathology of tumor, lung, stomach, heart, kidney, liver, spleen)", "setting": "[3]", "result": "lack of toxicity"}, {"measurement": "tumor growth compared to the control group", "setting": "MDA-MB-231 xenografts", "result": "significantly impeded growth"}, {"measurement": "IRAK4 protein levels (Western blot)", "setting": "IRAK4", "result": "degradation"}, {"measurement": "HIPK2 protein levels (Western blot)", "setting": "HIPK2", "result": "degradation"}]}, {"molecule": "CCNC(=O)c1noc(-c2cc(C(C)C)c(O)cc2O)c1-c1ccc(CN2CCOCC2)cc1", "note": "[NVP-AUY922]", "values": [{"measurement": "endogenous LMTK3 protein levels (Western blot)", "setting": "LMTK3", "result": "reduction of endogenous LMTK3 protein levels"}, {"measurement": "ERα levels (Western blot)", "setting": "ERα; BC cell lines, HSP90 inhibitor, 72 hours", "result": "down-regulation of ERα"}, {"measurement": "HSP70 levels (Western blot)", "setting": "HSP70", "result": "induction of HSP70"}]}, {"molecule": "COC1=C2C[C@@H](C)C[C@H](OC)[C@H](O)[C@@H](C)/C=C(\\C)[C@H](OC(N)=O)[C@@H](OC)/C=C\\C=C(/C)C(=O)NC(=CC1=O)C2=O", "note": "[geldanamycin]", "values": [{"measurement": "endogenous LMTK3 protein levels (Western blot)", "setting": "LMTK3", "result": "reduction of endogenous LMTK3 protein levels"}, {"measurement": "HSP70 levels (Western blot)", "setting": "HSP70", "result": "induction of HSP70"}]}, {"molecule": "LMTK3 catalytic domain (LMTK3cat; amino acids 134 to 444) (domain or fragment, UniProt Q96Q04 105-415, looked up, covalently labeled with a red NHS-647 fluorophore (NT647) for MST) LAEVSLPMPAPQPSHSDMTTPLGLSRQHLSYLQEIGSGWFGKVILGEIFSDYTPAQVVVKELRASAGPLEQRKFISEAQPYRSLQHPNVLQCLGLCVETLPFLLIMEFCQLGDLKRYLRAQRPPEGLSPELPPRDLRTLQRMGLEIARGLAHLHSHNYVHSDLALRNCLLTSDLTVRIGDYGLAHSNYKEDYYLTPERLWIPLRWAAPELLGELHGTFMVVDQSRESNIWSLGVTLWELFEFGAQPYRHLSDEEVLAFVVRQQHVKLARPRLKLPYADYWYDILQSCWRPPAQRPSASDLQLQLTYLLSER", "values": [{"measurement": "Kd", "setting": "[4]", "result": "2.21 ± 1.17", "unit": "µM"}]}]}
